Test results: patent publication US11236059B2, “Targeted cytotoxic ratjadone derivatives and conjugates thereof” (HELMHOLTZ-ZENTRUM FUER INFEKTIONSFORSCHUNG GMBH, priority 2017, dated 2022)
Read-outs that look alike come from different tables or passages of the source. One block for each compound: values may come before it. Numbered stars: 1 amine (or outer) side, 2 acyl side, 3 side chain; on linkers, the order of the positions; unused ones are H or OH. Square brackets hold non-standard residues; d marks the D form. Peptide text beside a SMILES is read from it. * marks the point of attachment. Pteroyl = Nc1nc2ncc(CNc3ccc(C(=O)*)cc3)nc2c(=O)[nH]1; Orn(N3) = [N-]=[N+]=NCCC[C@H](N)C(=O)O; γGlu = O=C(O)[C@H](CCC(=O)[*:2])N[*:1]

Legend:
[1] = test system: A549 (DSMZ ACC 107) cells; test: cells; format: cell-based
Procedure: (§1) 60 μL of serial dilutions of the test compound were given to 120 μL of suspended cells (50.000/mL) in wells of 96-well plates. After 5 days of incubation growth inhibition (IC50) was determined using an MTT assay.^[64]

[2] = test system: MCF-7 (DSMZ ACC 115) cells; test: cells; format: cell-based
Procedure: as §1

[3] = test system: SKOV-3 (DSMZ ATCC HTB 77) cells; test: cells; format: cell-based
Procedure: as §1

[4] = test system: KB 3.1 (DSMZ ACC 158) cells
[5] = test system: KB 3.1 (DSMZ ACC 158) cells; test: cells; settings: Homo sapiens, KB 3-1, 120 h, read-out: IC50 [nM] KB-3.1, growth inhibition, 5 days of incubation, MTT assay
[6] = biological target: T1, CRM1 (Homo sapiens, UniProt O14980); test: Monitoring export inhibitory activity (translocation biosensor, HeLaRevBio cells); format: cell-based; settings: HeLa cells stably expressing translocation biosensor, 1h of incubation; read-out: IC50 [nM] CRM1 (nuclear export inhibition)
T1 construct: HeLa cells stably expressing a fluorescent translocation biosensor (HeLaRevBio); endogenous in cells; host or cells: HeLa (HeLaRevBio in A7; HeLa in A8)
T1 sequence (O14980 whole entry): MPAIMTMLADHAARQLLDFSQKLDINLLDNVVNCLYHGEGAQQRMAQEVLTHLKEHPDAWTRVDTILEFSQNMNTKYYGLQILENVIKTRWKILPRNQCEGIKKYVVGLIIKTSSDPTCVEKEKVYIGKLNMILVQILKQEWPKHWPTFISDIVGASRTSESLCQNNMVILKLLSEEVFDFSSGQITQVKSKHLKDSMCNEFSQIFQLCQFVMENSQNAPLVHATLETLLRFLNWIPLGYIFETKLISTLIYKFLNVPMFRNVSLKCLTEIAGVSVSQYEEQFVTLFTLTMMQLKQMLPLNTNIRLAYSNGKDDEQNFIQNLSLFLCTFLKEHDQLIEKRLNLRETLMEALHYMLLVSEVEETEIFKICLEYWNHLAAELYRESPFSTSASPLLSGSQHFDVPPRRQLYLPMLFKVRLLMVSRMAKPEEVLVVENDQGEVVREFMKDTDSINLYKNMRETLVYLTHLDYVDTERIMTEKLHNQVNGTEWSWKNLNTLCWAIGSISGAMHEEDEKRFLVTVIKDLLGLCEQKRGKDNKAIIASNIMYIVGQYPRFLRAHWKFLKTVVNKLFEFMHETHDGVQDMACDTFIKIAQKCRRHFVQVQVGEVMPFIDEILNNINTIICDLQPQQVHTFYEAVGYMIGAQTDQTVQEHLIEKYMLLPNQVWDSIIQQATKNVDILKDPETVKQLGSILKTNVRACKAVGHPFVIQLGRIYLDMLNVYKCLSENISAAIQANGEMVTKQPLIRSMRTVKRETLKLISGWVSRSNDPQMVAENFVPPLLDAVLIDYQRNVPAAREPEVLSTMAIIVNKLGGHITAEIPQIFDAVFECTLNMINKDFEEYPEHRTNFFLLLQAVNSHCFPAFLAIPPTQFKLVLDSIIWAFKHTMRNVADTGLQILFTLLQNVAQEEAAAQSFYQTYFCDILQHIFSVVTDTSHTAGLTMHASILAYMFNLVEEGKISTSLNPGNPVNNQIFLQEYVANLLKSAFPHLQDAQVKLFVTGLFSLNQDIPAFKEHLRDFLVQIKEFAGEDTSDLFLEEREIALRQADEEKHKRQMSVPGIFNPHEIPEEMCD
Procedure: Export inhibitory ability of compounds was evaluated with the translocation biosensor system. This cellular assay depends on a recombinantly expressed fusion protein consisting of a nuclear localization signal (SV40-NLS), glutathione S-transferase (GST), green fluorescent protein (GFP) and a nuclear export signal (HIV1-RevNES). Due to the two transport signals (NLS/NES), the biosensor is permanently shuttling between nucleus and cytoplasm but resides prominently in the cytoplasm due to a comparatively stronger NES. Export inhibiting compound induce a nuclear accumulation of the GFP-signal^[65,66] Cell lines were maintained as recommended by the American Type Culture Collection in DMEM containing 5% glutamine (Thermo Fisher Scientific, Waltham, USA) supplemented with 10% FBS (Thermo Fisher Scientific, Waltham, USA). For quantifying the nuclear export inhibitory effect, HeLa cells stably expressing a fluorescent translocation biosensor (HeLaRevBio)^[67] were seeded into black 96 well μclear plates (Greiner, Germany). They next day compounds were added covering an appropriate concentration range. After 1h of incubation, cells were fixed in 4% PFA for 10 min and permeabilized with 0.1% Triton X 100 in PBS for 5 min. After washing with PBS nuclei were labeled with Hoechst H33342 (30 min 10 μg/ml). The intracellular distribution of the biosensor-dependent GFP signal was quantitatively evaluated with the high content imaging system ImageXpress MicroXLS (Molecular Devices, Sunnyvale, USA). By using the translocation enhanced application module (Molecular Devices, Sunnyvale, USA) the GFP-intensity was quantified in the cytoplasm and nuclear region. As final readout the difference of Mean Inner and Mean Outer Intensity was calculated. IC50s of nuclear export inhibition were calculated using Sigma Plot with four parameter logistics curve regression (Systat Software GmbH, Erkrath, Germany). […] The following day compounds were added at 125 nM final concentration.

[7] = control compounds; cited from earlier work
[8] = Homo sapiens, A549, 120 h, read-out: IC50 [nM] A-549, growth inhibition, 5 days of incubation, MTT assay
[9] = Homo sapiens, MCF7, 120 h, read-out: IC50 [nM] MCF-7, growth inhibition, 5 days of incubation, MTT assay
[10] = Homo sapiens, SK-OV-3, 120 h, read-out: IC50 [nM] SK-OV-3, growth inhibition, 5 days of incubation, MTT assay
[11] = growth inhibition, 5 days of incubation, MTT assay, read-out: IC50 [nM] A-549 (carrier molecules)
[12] = growth inhibition, 5 days of incubation, MTT assay, read-out: IC50 [nM] MCF-7 (carrier molecules)
[13] = growth inhibition, 5 days of incubation, MTT assay, read-out: IC50 [nM] SK-OV-3 (carrier molecules)
[14] = read-out: IC50 [nM] KB-3.1 (carrier molecules), growth inhibition, 5 days of incubation, MTT assay

IC50 [1]: 318 nM | IC50 [2]: 47.4 nM | IC50 [3]: 190 nM | IC50 [4]: 1110 nM
Compound: CC(C)C[C@H](NC(=O)C(CCCN=[N+]=[N-])NC(=O)[C@H](Cc1ccc(O)cc1)NC(=O)[C@H](CO)NC(=O)[C@H](Cc1c[nH]c2ccccc12)NC(=O)[C@H](Cc1c[nH]cn1)NC(=O)[C@@H]1CCC(=O)N1)C(=O)N[C@@H](CCCNC(=N)N)C(=O)N1CCC[C@H]1C(=O)NCC(N)=O (stereo in doubt) [D-N3-Orn-LHRH, (S)-1-(((R)-2-((S)-2-((S)-2-((S)-2-((S)-3-(1H-imidazol-4-yl)-2-((S)-5-oxopyrrolidine-2-carboxamido)propanamido)-3-(1H-indol-3-yl)propanamido)-3-hydroxypropanamido)-3-(4-hydroxyphenyl)propanamido)-5-azidopentanoyl)-L-leucyl-L-arginyl)-N-(2-amino-2-oxoethyl)pyrrolidine-2-carboxamide]

Compound: C#CCCOC(=O)N[C@H](/C=C/C=C(\C)C[C@@H](C)/C=C(C)\C=C\[C@H]1CC=CC(=O)O1)[C@@H]1C[C@@H](O)[C@H](C)[C@H](/C=C/C)O1 [Compound 24, But-3-yn-1-yl ((1R,2E,4E,7R,8Z,10E)-1-((2S,4R,5S,6S)-4-hydroxy-5-methyl-6-((E)-prop-1-en-1-yl)tetrahydro-2H-pyran-2-yl)-5,7,9-trimethyl-11-((R)-6-oxo-3,6-dihydro-2H-pyran-2-yl)undeca-2,4,8,10-tetraen-1-yl)carbamate]
IC50 [1, 8]: 1.25 nM | IC50 [2, 9]: 0.27 nM | IC50 [3, 10]: 0.45 nM | IC50 [5]: 0.47 nM | IC50 [6]: 46.1 nM

Compound: C#CCCOC(=O)N[C@@H](/C=C/C=C(\C)C[C@@H](C)/C=C(C)\C=C\[C@H]1CC=CC(=O)O1)[C@@H]1C[C@@H](O)[C@H](C)[C@H](/C=C/C)O1 [Compound 25, But-3-yn-1-yl ((1S,2E,4E,7R,8Z,10E)-1-((2S,4R,5S,6S)-4-hydroxy-5-methyl-6-((E)-prop-1-en-1-yl)tetrahydro-2H-pyran-2-yl)-5,7,9-trimethyl-11-((R)-6-oxo-3,6-dihydro-2H-pyran-2-yl)undeca-2,4,8,10-tetraen-1-yl)carbamate]
IC50 [1, 8]: 2.45 nM | IC50 [2, 9]: 0.62 nM | IC50 [3, 10]: 1.2 nM | IC50 [5]: 1.23 nM | IC50 [6]: 12 nM

IC50 [1, 11]: > 663000 nM | IC50 [2, 12]: > 663000 nM | IC50 [3, 13]: > 663000 nM | IC50 [4, 14]: > 663000 nM
Compound: CC(C)C[C@H](NC(=O)[C@@H](CCCN=[N+]=[N-])NC(=O)[C@H](Cc1ccc(O)cc1)NC(=O)[C@H](CO)NC(=O)[C@H](Cc1c[nH]c2ccccc12)NC(=O)[C@H](Cc1c[nH]cn1)NC(=O)[C@@H]1CCC(=O)N1)C(=O)N[C@@H](CCCNC(=N)N)C(=O)N1CCC[C@H]1C(=O)NNC(N)=O [D-N3-Orn-Goserellin, (S)—N-((6S,9S,12R,15S,18S,21S,24S)-21-((1H-indol-3-yl)methyl)-1-amino-12-(3-azidopropyl)-6-((S)-2-(2-carbamoylhydrazine-1-carbonyl)pyrrolidine-1-carbonyl)-15-(4-hydroxybenzyl)-18-(hydroxymethyl)-25-(1H-imidazol-4-yl)-1-imino-9-isobutyl-8,11,14,17,20,23-hexaoxo-2,7,10,13,16,19,22-heptaazapentacosan-24-yl)-5-oxopyrrolidine-2-carboxamide]

IC50 [1, 11]: > 86400 nM | IC50 [4, 14]: > 86400 nM
Compound: [N-]=[N+]=NCCC[C@H](NC(=O)[C@@H](CC(=O)O)NC(=O)[C@@H](CC(=O)O)NC(=O)[C@@H](CC(=O)O)NC(=O)[C@@H](CC(=O)O)NC(=O)[C@@H](CC(=O)O)NC(=O)CC[C@H](NC(=O)c1ccc(NCc2cnc3nc(N)nc(O)c3n2)cc1)C(=O)O)C(=O)O [FA-N3-5, N^2-(4-(((2-amino-4-hydroxypteridin-6-yl)methyl)amino)benzoyl)-N5-((R)-1-(((R)-1-(((R)-1-(((R)-1-(((R)-1-(((S)-4-azido-1-carboxybutyl)amino)-3-carboxy-1-oxopropan-2-yl)amino)-3-carboxy-1-oxopropan-2-yl)amino)-3-carboxy-1-oxopropan-2-yl)amino)-3-carboxy-1-oxopropan-2-yl)amino)-3-carboxy-1-oxopropan-2-yl)-L-glutamine] ({Pteroyl-γGlu}-[dD][dD][dD][dD][dD][Orn(N3)]-OH)

Compound: [N-]=[N+]=Nc1ccc(C(=O)NCCCC[C@H](NC(=O)CC[C@H](NC(=O)CC[C@H](NC(=O)c2ccc(NCc3cnc4nc(N)nc(O)c4n3)cc2)C(=O)O)C(=O)O)C(=O)O)cc1 [FA-N3-6, (3S,8S,13S)-1-(4-(((2-amino-4-hydroxypteridin-6-yl)methyl)amino)phenyl)-19-(4-azidophenyl)-1,6,11,19-tetraoxo-2,7,12,18-tetraazanonadecane-3,8,13-tricarboxylic acid]
IC50 [1, 11]: > 118000 nM | IC50 [4, 14]: > 118000 nM

IC50 [1, 11]: > 140000 nM | IC50 [4, 14]: > 140000 nM
Compound: [N-]=[N+]=NCCC[C@H](NC(=O)CC[C@H](NC(=O)c1ccc(NCc2cnc3nc(N)nc(O)c3n2)cc1)C(=O)O)C(=O)N[C@H](CCCCN)C(=O)O [FA-N3-9, ((S)-2-((S)-4-(4-(((2-amino-4-hydroxypteridin-6-yl)methyl)amino)benzamido)-4-carboxybutanamido)-5-azidopentanoyl)-D-lysine]

IC50 [1, 11]: > 727000 nM | IC50 [2, 12]: > 727000 nM | IC50 [3, 13]: > 727000 nM | IC50 [4, 14]: > 727000 nM
Compound: CC(C)C[C@H](NC(=O)[C@H](CCCN=[N+]=[N-])NC(=O)[C@H](Cc1ccc(O)cc1)NC(=O)[C@H](CO)NC(=O)[C@H](Cc1c[nH]c2ccccc12)NC(=O)[C@H](Cc1c[nH]cn1)NC(=O)[C@@H]1CCC(=O)N1)C(=O)N[C@@H](CCCNC(=N)N)C(=O)N1CCC[C@H]1C(=O)NCC(N)=O [L-N3-Orn-LHRH, (S)-1-(((S)-2-((S)-2-((S)-2-((S)-2-((S)-3-(1H-imidazol-4-yl)-2-((S)-5-oxopyrrolidine-2-carboxamido)propanamido)-3-(1H-indol-3-yl)propanamido)-3-hydroxypropanamido)-3-(4-hydroxyphenyl)propanamido)-5-azidopentanoyl)-L-leucyl-L-arginyl)-N-(2-amino-2-oxoethyl)pyro-lidine-2-carboxamide]

IC50 [1, 11]: > 405000 nM | IC50 [2, 12]: > 405000 nM | IC50 [3, 13]: > 405000 nM | IC50 [4, 14]: > 405000 nM
Compound: CC(C)C[C@H](NC(=O)CNC(=O)[C@H](Cc1ccc(O)cc1)NC(=O)[C@H](CO)NC(=O)[C@H](Cc1c[nH]c2ccccc12)NC(=O)[C@H](Cc1c[nH]cn1)NC(=O)[C@@H]1CCC(=O)N1)C(=O)N[C@@H](CCCNC(=N)N)C(=O)N1CCC[C@H]1C(=O)NCC(N)=O [LHRH, (S)—N-(2-amino-2-oxoethyl)-1-(((S)-5-oxopyrrolidine-2-carbonyl)-L-histidyl-L-tryptophyl-L-seryl-L-tyrosylglycyl-L-leucyl-L-arginyl)pyrrolidine-2-carboxamide, reference compound]

Compound: C#CCNC1C[C@@H]([C@H](O)/C=C/C=C(\C)C[C@@H](C)/C=C(C)\C=C\[C@H]2CC=CC(=O)O2)O[C@@H](/C=C/C)[C@H]1C (stereo partly drawn) [N-Propargyl-19-amino-Ratjadone 42, (6R)-6-((1E,3Z,5R,7E,9E,11R)-11-hydroxy-3,5,7-trimethyl-11-((2S,5S,6S)-5-methyl-6-((E)-prop-1-en-1-yl)-4-(prop-2-yn-1-ylamino)tetrahydro-2H-pyran-2-yl)undeca-1,3,7,9-tetraen-1-yl)-5,6-dihydro-2H-pyran-2-one]
IC50 [1, 8]: 1.12 nM | IC50 [2, 9]: 1.31 nM | IC50 [3, 10]: 2.63 nM | IC50 [5]: 1.23 nM | IC50 [6]: 18.3 nM

Compound: CCN(CC)CCOC(=O)c1ccc(N)cc1 [Procaine, procaine]
stability in mouse plasma [7]: unstable

Compound: CCCOc1cc(N)ccc1C(=O)OCCN(CC)CC [propoxycaine]
stability in mouse plasma [7]: unstable
